Data from patent US10399989B2, “Pyrazolopyrimidine derivatives as BTK inhibitors for the treatment of cancer” (Loxo Oncology, Inc., priority 2016, dated 2019).
Read-outs that look alike come from different tables or passages of the source.

Legend:
BTK^WT = BTK^WT (Homo sapiens (Human), UniProt Q06187); test: BTK^WT binding affinity (TR-FRET, LanthaScreen)
Procedure, shortened: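 Tracer-displacement TR-FRET: 2.5 nM recombinant BTK, 2 nM Eu anti-His antibody and 15 nM Kinase Tracer 236 in Kinase Buffer A with inhibitor for 5 h. Emission read at 615/665 nm (excitation 340 nm); IC50 from variable-slope fit of log concentration vs response.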

BTK^C481S = BTK^C481S (Homo sapiens (Human), UniProt Q06187, C481S); test: BTK^C481S binding affinity (TR-FRET, LanthaScreen); settings: 5 h incubation
Procedure, shortened: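 Tracer-displacement TR-FRET: 5 nM recombinant kinase, 2 nM Eu anti-His antibody and 30 nM Kinase Tracer 236 incubated 5 h with varying inhibitor in Kinase Buffer A. Read at 340 nm excitation, 615/665 nm emission. IC50 from log[inhibitor]–response variable-slope fit.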

EGFR = EGFR (Homo sapiens (Human), UniProt P00533); test: EGFR binding affinity (TR-FRET, LanthaScreen); settings: 5 h incubation
Procedure, shortened: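 IC50 derived by variable-slope fit of TR-FRET signal (ex 340, em 615 and 665 nm) against inhibitor concentration. Mix contained recombinant GST-detected EGFR at 2.5 nM, Eu anti-GST antibody at 2 nM and Kinase Tracer 199 at 3 nM in Kinase Buffer A, 5 h incubation.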

[1] = system: OCI-Ly10 human DLBCL cells; test: OCI-Ly10 anti-proliferative activity (Resazurin, 72 h); format: cell-based; settings: Homo sapiens, OCI-Ly10, 72 h, read-out: Proliferation OCI-Ly10-IC50
Procedure, shortened: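 Resazurin fluorescence (590 nm, 5 h dye incubation) read after 72 h compound exposure at 37 °C; NFκB-dependent cells seeded at 7.5×10^3/well in 2.5% FBS medium. Day 0 signal subtracted, values normalised to DMSO control; IC50 from log[inhibitor] vs response, variable-slope fit.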

[2] = TR-FRET binding, 5 h incubation, read-out: BTK^WT IC50
[3] = Table 6, numeric values, read-out: BTK Binding IC50

Sequence of BTK^WT (Q06187 whole entry): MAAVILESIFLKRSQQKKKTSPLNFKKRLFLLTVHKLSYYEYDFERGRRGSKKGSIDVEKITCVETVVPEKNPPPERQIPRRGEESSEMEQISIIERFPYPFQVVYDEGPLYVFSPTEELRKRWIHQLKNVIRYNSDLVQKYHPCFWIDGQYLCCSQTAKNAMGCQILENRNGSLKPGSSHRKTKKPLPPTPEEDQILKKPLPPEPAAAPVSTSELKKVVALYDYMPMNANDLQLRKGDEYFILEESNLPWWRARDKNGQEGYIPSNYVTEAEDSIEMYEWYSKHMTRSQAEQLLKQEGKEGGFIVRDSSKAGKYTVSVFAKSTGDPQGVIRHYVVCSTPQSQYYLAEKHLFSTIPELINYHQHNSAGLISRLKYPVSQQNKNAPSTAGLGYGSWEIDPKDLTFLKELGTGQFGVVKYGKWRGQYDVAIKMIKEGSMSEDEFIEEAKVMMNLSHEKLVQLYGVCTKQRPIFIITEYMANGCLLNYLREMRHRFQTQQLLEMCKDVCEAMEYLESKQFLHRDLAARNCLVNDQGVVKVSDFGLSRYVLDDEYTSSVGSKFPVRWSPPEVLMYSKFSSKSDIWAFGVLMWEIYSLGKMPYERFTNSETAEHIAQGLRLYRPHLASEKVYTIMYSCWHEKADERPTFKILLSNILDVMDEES
Sequence of BTK^C481S (Q06187 whole entry C481S): as the sequence (Q06187 whole entry) above, with C481S counted along it
Sequence of EGFR (P00533 25-1210): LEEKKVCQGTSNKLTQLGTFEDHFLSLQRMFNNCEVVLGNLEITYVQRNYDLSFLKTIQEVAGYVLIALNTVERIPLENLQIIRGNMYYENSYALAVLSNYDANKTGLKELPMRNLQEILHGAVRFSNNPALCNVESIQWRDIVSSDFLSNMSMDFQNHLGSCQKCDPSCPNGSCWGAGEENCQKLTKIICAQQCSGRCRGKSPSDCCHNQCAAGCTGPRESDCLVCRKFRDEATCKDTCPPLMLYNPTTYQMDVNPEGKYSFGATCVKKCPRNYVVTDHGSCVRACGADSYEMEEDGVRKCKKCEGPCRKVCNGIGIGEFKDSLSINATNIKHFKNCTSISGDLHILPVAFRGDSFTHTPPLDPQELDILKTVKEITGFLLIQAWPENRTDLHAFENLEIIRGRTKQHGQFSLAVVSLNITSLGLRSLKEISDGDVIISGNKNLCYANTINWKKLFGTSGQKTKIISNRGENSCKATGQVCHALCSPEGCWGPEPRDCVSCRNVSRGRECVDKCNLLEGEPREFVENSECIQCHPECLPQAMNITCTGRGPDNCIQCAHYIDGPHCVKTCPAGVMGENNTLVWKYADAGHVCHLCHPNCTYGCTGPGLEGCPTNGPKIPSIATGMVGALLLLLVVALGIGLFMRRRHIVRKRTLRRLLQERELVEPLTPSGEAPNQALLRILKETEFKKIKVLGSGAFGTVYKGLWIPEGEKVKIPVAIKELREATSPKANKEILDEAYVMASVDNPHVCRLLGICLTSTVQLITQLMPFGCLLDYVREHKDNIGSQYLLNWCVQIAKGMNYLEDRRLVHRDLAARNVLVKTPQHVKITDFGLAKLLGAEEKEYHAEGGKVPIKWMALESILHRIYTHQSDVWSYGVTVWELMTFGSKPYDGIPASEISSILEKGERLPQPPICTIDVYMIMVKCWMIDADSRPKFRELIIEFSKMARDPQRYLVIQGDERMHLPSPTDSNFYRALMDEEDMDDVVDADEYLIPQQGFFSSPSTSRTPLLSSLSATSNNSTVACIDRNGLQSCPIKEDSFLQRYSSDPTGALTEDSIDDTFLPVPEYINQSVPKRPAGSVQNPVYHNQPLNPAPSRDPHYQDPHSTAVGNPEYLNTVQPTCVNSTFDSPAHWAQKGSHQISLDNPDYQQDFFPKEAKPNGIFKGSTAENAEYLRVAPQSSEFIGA

Row | IC50 (BTK^WT; [2]) [nM] | IC50 (BTK^C481S) [nM] | IC50 (EGFR) [nM] | IC50 [1] [nM] | IC50 (BTK^WT; [3]) [nM] | Compound
1 | ≤ 10 | ≤ 10 | 100 to 1000 | 10 to 100 | – | CCOC(=O)C1CCC(n2nc(-c3ccc(CNC(=O)c4ccccc4OC)cc3)c3c(N)ncnc32)CC1 (centres unmarked) [Example 32, ethyl 4-[4-amino-3-[4-[[(2-methoxybenzoyl)amino]methyl]phenyl]pyrazolo[3,4-d]pyrimidin-1-yl]cyclohexanecarboxylate]
2 | ≤ 10 | ≤ 10 | 1000 to 10000 | 10 to 100 | – | COc1ccccc1C(=O)NCc1ccc(-c2nn(C3CCCOC3)c3ncnc(N)c23)cc1 (centres unmarked) [Example 34, N-[[4-(4-amino-1-tetrahydropyran-3-yl-pyrazolo[3,4-d]pyrimidin-3-yl)phenyl]methyl]-2-methoxy-benzamide]
3 | ≤ 10 | ≤ 10 | 10 to 100 | 10 to 100 | – | COc1ccccc1C(=O)NCc1ccc(-c2nn([C@H]3C=C[C@H](OC(C)=O)C3)c3ncnc(N)c23)cc1 [Example 35, [(1R,4R)-4-[4-amino-3-[4-[[(2-methoxybenzoyl)amino]methyl]phenyl]pyrazolo[3,4-d]pyrimidin-1-yl]cyclopent-2-en-1-yl] acetate]
4 | ≤ 10 | ≤ 10 | 100 to 1000 | 100 to 1000 | – | COc1ccccc1C(=O)NCc1ccc(-c2nn([C@H]3C=C[C@H](O)C3)c3ncnc(N)c23)cc1 [Example 36, N-[[4-[4-amino-1-[(1R,4R)-4-hydroxycyclopent-2-en-1-yl]pyrazolo[3,4-d]pyrimidin-3-yl]phenyl]methyl]-2-methoxy-benzamide]
5 | ≤ 10 | ≤ 10 | 100 to 1000 | 100 to 1000 | 1.7 | COc1ccccc1C(=O)NCc1ccc(-c2nn(C3CCCC(O)C3)c3ncnc(N)c23)cc1 (centres unmarked) [Example 37, N-[[4-[4-amino-1-(3-hydroxycyclohexyl)pyrazolo[3,4-d]pyrimidin-3-yl]phenyl]methyl]-2-methoxy-benzamide]
6 | ≤ 10 | ≤ 10 | 10 to 100 | 10 to 100 | – | COc1ccccc1C(=O)NCc1ccc(-n2nc(C3CCCC3)c3ncnc(N)c32)cc1 [Example 38, N-[[4-(7-amino-3-cyclopentyl-pyrazolo[4,3-d]pyrimidin-1-yl)phenyl]methyl]-2-methoxy-benzamide]
7 | ≤ 10 | ≤ 10 | 100 to 1000 | 10 to 100 | 1.4 | COc1ccccc1C(=O)NCc1ccc(-c2nn(C3CCC(OC)CC3)c3ncnc(N)c23)cc1 (centres unmarked) [Example 39, N-[[4-[4-amino-1-(4-methoxycyclohexyl)pyrazolo[3,4-d]pyrimidin-3-yl]phenyl]methyl]-2-methoxy-benzamide]
8 | ≤ 10 | ≤ 10 | 100 to 1000 | 10 to 100 | – | COc1ccccc1C(=O)NCc1ccc(-c2nn(C3CC=CC3)c3ncnc(N)c23)cc1 [Example 40, N-[[4-(4-amino-1-cyclopent-3-en-1-yl-pyrazolo[3,4-d]pyrimidin-3-yl)phenyl]methyl]-2-methoxy-benzamide]
9 | ≤ 10 | ≤ 10 | 100 to 1000 | 100 to 1000 | 1.2 | CCOC(=O)C1CCCC(n2nc(-c3ccc(CNC(=O)c4ccccc4OC)cc3)c3c(N)ncnc32)C1 (centres unmarked) [Example 41, ethyl 3-[4-amino-3-[4-[[(2-methoxybenzoyl)amino]methyl]phenyl]pyrazolo[3,4-d]pyrimidin-1-yl]cyclohexanecarboxylate]
10 | ≤ 10 | ≤ 10 | 1000 to 10000 | 100 to 1000 | – | COc1ccccc1C(=O)NCc1ccc(-c2nn(C3CCCC(C(=O)N(C)C)C3)c3ncnc(N)c23)cc1 (centres unmarked) [Example 42, N-[[4-[4-amino-1-[3-(dimethylcarbamoyl)cyclohexyl]pyrazolo[3,4-d]pyrimidin-3-yl]phenyl]methyl]-2-methoxy-benzamide]
11 | ≤ 10 | ≤ 10 | 100 to 1000 | 10 to 100 | – | COc1ccc(F)cc1C(=O)NCc1ccc(-c2nn(C(C)(C)C)c3ncnc(N)c23)cc1 [Example 43, N-[[4-(4-amino-1-tert-butyl-pyrazolo[3,4-d]pyrimidin-3-yl)phenyl]methyl]-5-fluoro-2-methoxy-benzamide]
12 | ≤ 10 | ≤ 10 | 1000 to 10000 | 100 to 1000 | – | COc1ccccc1C(=O)NCc1ccc(-c2nn([C@@H]3C=C[C@H](O)C3)c3ncnc(N)c23)cc1 [Example 44, N-[[4-[4-amino-1-[(1S,4R)-4-hydroxycyclopent-2-en-1-yl]pyrazolo[3,4-d]pyrimidin-3-yl]phenyl]methyl]-2-methoxy-benzamide]
13 | ≤ 10 | ≤ 10 | 100 to 1000 | 100 to 1000 | – | COc1ccccc1C(=O)NCc1ccc(-c2nn([C@@H]3C[C@@H](O)C4CC43)c3ncnc(N)c23)cc1 (stereo partly drawn) [Example 45, N-[[4-[4-amino-1-[(2R,4R)-4-hydroxy-2-bicyclo[3.1.0]hexanyl]pyrazolo[3,4-d]pyrimidin-3-yl]phenyl]methyl]-2-methoxy-benzamide]
14 | 10 to 100 | 10 to 100 | 100 to 1000 | 100 to 1000 | – | COc1ccccc1C(=O)NCc1ccc(-c2nn(C3CCC(OC(=O)c4ccc(C)cc4)CC3)c3ncnc(N)c23)cc1 (centres unmarked) [Example 46, [4-[4-amino-3-[4-[[(2-methoxybenzoyl)amino]methyl]phenyl]pyrazolo[3,4-d]pyrimidin-1-yl]cyclohexyl] 4-methylbenzoate]
15 | ≤ 10 | ≤ 10 | 100 to 1000 | 100 to 1000 | – | COc1ccccc1C(=O)NCc1ccc(-c2nn([C@H]3C=C[C@@H](O)C3)c3ncnc(N)c23)cc1 [Example 47, N-[[4-[4-amino-1-[(1R,4S)-4-hydroxycyclopent-2-en-1-yl]pyrazolo[3,4-d]pyrimidin-3-yl]phenyl]methyl]-2-methoxy-benzamide]
16 | 10 to 100 | ≤ 10 | 1000 to 10000 | 100 to 1000 | – | COc1ccccc1C(=O)NCc1ccc(-c2nn([C@H]3C=C[C@@H](OC(=O)C(C)(C)C)C3)c3ncnc(N)c23)cc1 [Example 48, [(1S,4R)-4-[4-amino-3-[4-[[(2-methoxybenzoyl)amino]methyl]phenyl]pyrazolo[3,4-d]pyrimidin-1-yl]cyclopent-2-en-1-yl] 2,2-dimethylpropanoate]
17 | ≤ 10 | ≤ 10 | 10 to 100 | 10 to 100 | 0.4 | COc1ccccc1C(=O)NCc1ccc(-c2nn(C3C=CCCC3)c3ncnc(N)c23)cc1 (centres unmarked) [Example 49, N-[[4-(4-amino-1-cyclohex-2-en-1-yl-pyrazolo[3,4-d]pyrimidin-3-yl)phenyl]methyl]-2-methoxy-benzamide]
18 | ≤ 10 | ≤ 10 | 100 to 1000 | 100 to 1000 | – | COc1ccccc1C(=O)NCc1ccc(-c2nn([C@@H]3C=C[C@@H](O)C3)c3ncnc(N)c23)cc1 [Example 50, N-[[4-[4-amino-1-[(1S,4S)-4-hydroxycyclopent-2-en-1-yl]pyrazolo[3,4-d]pyrimidin-3-yl]phenyl]methyl]-2-methoxy-benzamide]
19 | ≤ 10 | ≤ 10 | 10 to 100 | 10 to 100 | 0.6 | COc1ccccc1C(=O)NCc1ccc(-c2nn(C(C)(C)C)c3ncnc(N)c23)cc1 [Example 51, N-[[4-(4-amino-1-tert-butyl-pyrazolo[3,4-d]pyrimidin-3-yl)phenyl]methyl]-2-methoxy-benzamide]
20 | ≤ 10 | ≤ 10 | 10 to 100 | 10 to 100 | – | COc1ccccc1C(=O)NCc1ccc(-c2nn(C3CC4CC4C3)c3ncnc(N)c23)cc1 (centres unmarked) [Example 52, N-[[4-[4-amino-1-(3-bicyclo[3.1.0]hexanyl)pyrazolo[3,4-d]pyrimidin-3-yl]phenyl]methyl]-2-methoxy-benzamide]
21 | 10 to 100 | ≤ 10 | 1000 to 10000 | 1000 to 10000 | – | COc1ccc(F)cc1C(=O)NCc1ccc(-c2nn([C@H]3C=C[C@H](O)C3)c3ncnc(N)c23)cc1 [Example 53, N-[[4-[4-Amino-1-[(1R,4R)-4-hydroxycyclopent-2-en-1-yl]pyrazolo[3,4-d]pyrimidin-3-yl]phenyl]methyl]-5-fluoro-2-methoxy-benzamide]
22 | ≤ 10 | ≤ 10 | 1000 to 10000 | 100 to 1000 | 0.7 | COc1ccccc1C(=O)NCc1ccc(-c2nn([C@H]3C=C[C@H](F)C3)c3ncnc(N)c23)cc1 [Example 54, N-[(4-{4-amino-1-[(1R,4R)-4-fluorocyclopent-2-en-1-yl]-1H-pyrazolo[3,4-d]pyrimidin-3-yl}phenyl)methyl]-2-methoxybenzamide]
23 | 10 to 100 | 10 to 100 | 1000 to 10000 | 100 to 1000 | – | CCO[C@H]1C=C[C@H](n2nc(-c3ccc(CNC(=O)c4ccccc4OC)cc3)c3c(N)ncnc32)C1 [Example 55, N-[(4-{4-amino-1-[(1R,4R)-4-ethoxycyclopent-2-en-1-yl]-1H-pyrazolo[3,4-d]pyrimidin-3-yl}phenyl)methyl]-2-methoxybenzamide]
